Assay results published in US11845748B2, “Bicyclic pyridine N-oxide derivatives useful as a factor XIa inhibitors” (Janssen Pharmaceutica NV, priority 2021, dated 2023).

Key:
[1] = target: Factor XIa (Homo sapiens, UniProt P03951); test: Factor XIa inhibition assay utilizing a fluorophore-quencher pair peptide substrate (FLINT); type: biochemical; settings: kinetic reads at 5 min intervals over 30 min; 30 min preincubation; 5Fam-KLTRAETV-K5Tamra substrate; read-out: FXIa (KIN) IC50
Excerpt: Biological Example 1: Factor XIa Inhibition Assay Utilizing a Fluorophore-Quencher Pair Peptide Substrate
A fluorescence intensity (FLINT) based assay was used to monitor inhibition of Factor XIa. The peptide substrate, 5Fam-KLTRAETV-K5Tamra (purchased from New England Peptide) was chosen based on the […]. Conversion of zymogen […]. The custom peptide used in this assay was based on the Arg146 cleavage site of FXI. The peptide substrate was designed with a fluorophore-quencher pair, where the fluorescence is quenched until FXIa cleaves the 8-mer peptide after the Arg residue. The substrate KM was fit to a substrate inhibition model whereby kcat=0.86 s^−1, KM=12.4 μM, Ki=61.6 μM with an enzymatic efficiency, and kcat/KM=69523 M^−1s^−1.
The Factor XIa FLINT assay was used with the following 5Fam-KLTRAETV-K5Tamra assay buffer: 50 mM Tris, pH 7.5, 100 mM NaCl, 5 mM CaCl2, 0.1 mg/mL BSA, 0.03% CHAPS. Assay buffer was prepared by mixing all ingredients fresh. 5Fam-KLTRAETV-K5Tamra peptide substrate was first prepared at 10 mM in 100% DMSO, then diluted to 3 mM in 100% DMSO. Assay buffer was then added directly to the 3 mM stock of substrate to prepare the 30 μM 2× working concentration (15 μM final concentration). The 2× Factor XIa stock solution was prepared by diluting 6.562 μM stock in 1× assay buffer for a 200 pM working stock solution (100 pM final concentration).
Test compound(s) were run in an 11-point, 3-fold serial dilution with a final top compound concentration of 100 nM. Final DMSO in assay was 2%. FXIa was preincubated with compound for 30-minutes and then substrate was added to initiate the reaction. The assay was run with either end point (EP) reads at 30 min or kinetic (KIN) reads at 5 min intervals over 30 minutes. The time course was linear using 100 μM FXIa greater than 30 minutes. More specifically, the assay was run as follows: • 100 nL of 0.01 mM test compound was dispensed into black 384-well non-binding Greiner BioOne 784900 plate for 0.1 μM final concentration; • 5 μL of 1× assay buffer was dispensed to column 24 (low control) and 5 μL 2× Factor XIa solution was dispensed to columns 1-23 (column 23 high control); • the plate was centrifuged with a “cover” plate at 500 rpm for 1 min the plate was pre-incubated for 30 minutes at room temperature with plate covered; • 5 μL of 2× 5Fam-KLTRAETV-K5Tamra peptide substrate was dispensed into the entire plate, columns 1-24; • the plate was centrifuged with a “cover” plate at 500 rpm for 1 min; • the plate was read monitoring fluorescence intensity on the BMG PHERAStar at room temperature, using fluorescence module 485 nm/520 nm.
Percent inhibition (IC50) curves were generated per compound tested, and data was analyzed using a 4-parameter logistic fit using GeneData Screener. The relative fluorescence unit (RFU) values were normalized to percent inhibition using the following equation: % inhibition=((HC−LC)−(compound−LC)/(HC−LC))*100 where LC—low control=mean signal of no Factor XIa or 100% inhibition of Factor XIa; HC—high control=mean signal of Factor XIa+5Fam-KLTRAETV-K5Tamra peptide substrate with DMSO only.
(§1) An 11-point dose response curve for the test compound(s) was generated using GENDATA to determine IC50 value based on the following equation: Y=Bottom+(Top−Bottom)/(1+10^((log IC50−X)*HillSlope))
where Y is the % inhibition in the presence of X inhibitor concentration, Top=high control=mean signal of Factor XIa+5Fam-KLTRAETV-K5Tamra peptide substrate with DMSO only; Bottom=low control−mean signal of no Factor XIa or 100% inhibition of Factor XIa; HillSlope—Hill coefficient; and IC50=concentration of compound with 50% inhibition in relation to top/high control. […]

[2] = target: human plasma kallikrein (Homo sapiens, UniProt P03952); test: Kallikrein inhibition assay utilizing a quenched AMC peptide substrate (FLINT); type: biochemical; settings: kinetic reads at 5 min intervals over 30 min; 30 min preincubation; Z-Gly-Pro-Arg-AMC substrate; read-out: Kallikrein (KIN) IC50
human plasma kallikrein, sequence (P03952 391-638 limits assumed): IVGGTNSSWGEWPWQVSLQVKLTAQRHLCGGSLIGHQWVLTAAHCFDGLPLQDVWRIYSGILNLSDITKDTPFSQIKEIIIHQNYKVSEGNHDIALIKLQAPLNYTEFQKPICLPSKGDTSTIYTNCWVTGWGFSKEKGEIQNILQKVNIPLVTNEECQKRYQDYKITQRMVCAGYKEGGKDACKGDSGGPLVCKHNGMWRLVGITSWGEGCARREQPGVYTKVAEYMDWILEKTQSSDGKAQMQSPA
human plasma kallikrein, sequence (P03952 20-390 partner limits assumed): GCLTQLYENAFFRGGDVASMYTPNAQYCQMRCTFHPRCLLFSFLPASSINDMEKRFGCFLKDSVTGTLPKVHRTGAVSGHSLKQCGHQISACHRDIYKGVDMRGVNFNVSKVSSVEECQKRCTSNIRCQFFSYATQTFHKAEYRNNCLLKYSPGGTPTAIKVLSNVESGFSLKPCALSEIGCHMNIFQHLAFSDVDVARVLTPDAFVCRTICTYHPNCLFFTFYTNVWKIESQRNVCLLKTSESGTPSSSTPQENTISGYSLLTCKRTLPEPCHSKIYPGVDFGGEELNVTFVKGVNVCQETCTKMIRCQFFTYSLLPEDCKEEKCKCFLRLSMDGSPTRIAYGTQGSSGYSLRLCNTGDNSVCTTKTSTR
Description: Biological Example 2: Kallikrein Inhibition Assay Utilizing a Quenched AMC Peptide Substrate
A fluorescence intensity (FLINT) based assay was used to monitor inhibition of human plasma kallikrein. The peptide substrate, Z-Gly-Pro-Arg-AMC (Purchased from Bachem; Catalog #I-1150) was chosen based on its relatively low KM for kallikrein which enables running the assay at lower substrate concentrations to control background fluorescence. The kinetic parameters for this substrate were determined by fitting titration data to the Michaelis-Menten equation yielding a KM=40 μM, kcat=0.76 s^−1, and kcat/KM=18932 M^−1s^−1.
The Kallikrein FLINT assay was used with the following Z-Gly-Pro-Arg-AMC assay buffer: 50 mM Tris, pH 7.5, 100 mM NaCl, 5 mM CaCl2, 0.1 mg/mL BSA, 0.03% CHAPS. Assay buffer was prepared by mixing all ingredients fresh. 2× Z-Gly-Pro-Arg-AMC peptide substrate was prepared by diluting 10 mM stock into 1× assay buffer for a 100 μM working concentration (50 μM final concentration). The 2× kallikrein stock solution was prepared by diluting 14.76 μM stock in 1× assay buffer for a 4 nM working stock solution (2 nM final concentration).
Test compound(s) were run in an 11-point, 3-fold serial dilution with a final top compound concentration of 1 μM. Final DMSO in assay was 2%. Plasma kallikrein was pre-incubated for 30-minute with compound and then 50 μM substrate was added to initiate the reaction. The assay was run with kinetic (KIN) reads at 5 min intervals over 30 minutes. The time course was linear using 2 nM kallikrein greater than 30 minutes. More specifically, the assay was run as follows: • 100 nL of 0.1 mM test compound was dispensed into black 384-well non-binding Greiner BioOne 784900 plate for 1 μM final concentration; • 5 μL of 1× assay buffer was dispensed to columns 24 (low control) and 5 μL 2× human kallikrein enzyme solution was dispensed to columns 1-23 (column 23 high control); • the plate was centrifuged with a “cover” plate at 500 rpm for 1 min the plate was pre-incubated for 30 minutes at room temperature with plate covered; • 5 μL of 2× Z-Gly-Pro-Arg-AMC peptide substrate was dispensed into the entire plate, columns 1-24; • the plate was centrifuged with a “cover” plate at 500 rpm for 1 min; • the plate was read monitoring fluorescence intensity on the BMG PHERAStar at room temperature, using fluorescence module 340 nm/440 nm.
Percent inhibition (IC50) curves were generated per compound tested, and data was analyzed using a 4-parameter logistic fit using GeneData Screener. The relative fluorescence unit (RFU) values were normalized to percent inhibition using the following equation: % inhibition=((HC−LC)−(compound−LC)/(HC−LC))*100
where LC—low control=mean signal of […] 100% inhibition of human kallikrein enzyme; HC—high control=mean signal of […]+Z-Gly-Pro-Arg-AMC peptide substrate with DMSO only.
as §1
where Y is the % inhibition in the presence of X inhibitor concentration, Top=high control=mean signal of human kallikrein enzyme+Z-Gly-Pro-Arg-AMC peptide substrate with DMSO only; Bottom=low control−mean signal of no human kallikrein enzyme or 100% inhibition of human kallikrein enzyme; HillSlope—Hill coefficient; and IC50=concentration of compound with 50% inhibition in relation to top/high control.
Representative compounds of formula (I) of the present invention were tested according to the procedure described in Biological Example 1 and Biological Example 2 above, with results as listed in Table 2, below. Results listed in the (ER) column were measured using endpoint reads where a single fluorescence reading was measured for each well at a 30 min timepoint. […]

Factor XIa, sequence (P03951 388-625 limits assumed): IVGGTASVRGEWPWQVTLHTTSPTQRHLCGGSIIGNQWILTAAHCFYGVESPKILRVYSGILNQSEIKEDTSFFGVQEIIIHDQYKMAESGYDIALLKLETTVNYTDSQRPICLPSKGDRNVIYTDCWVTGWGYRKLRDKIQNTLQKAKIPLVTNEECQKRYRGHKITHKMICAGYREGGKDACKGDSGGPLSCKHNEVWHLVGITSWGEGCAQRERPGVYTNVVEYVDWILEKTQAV
Factor XIa, sequence (P03951 19-387 partner limits assumed): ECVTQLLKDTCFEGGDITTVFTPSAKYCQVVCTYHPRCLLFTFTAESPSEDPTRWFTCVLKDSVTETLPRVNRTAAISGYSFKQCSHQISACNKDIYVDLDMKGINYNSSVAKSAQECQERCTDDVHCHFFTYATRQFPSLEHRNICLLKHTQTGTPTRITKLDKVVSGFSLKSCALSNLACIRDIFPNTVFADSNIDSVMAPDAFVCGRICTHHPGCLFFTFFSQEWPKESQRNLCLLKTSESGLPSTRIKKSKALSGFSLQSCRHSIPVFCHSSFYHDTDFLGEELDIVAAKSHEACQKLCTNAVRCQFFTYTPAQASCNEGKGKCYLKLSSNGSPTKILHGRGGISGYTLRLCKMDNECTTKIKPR

| SMILES | IC50 [1] | IC50 [2] |
| --- | --- | --- |
| Nc1ccc(-c2cnn(C3CCc4cc(-c5c(-n6cnnn6)ccc(Cl)c5F)c[n+]([O-])c43)c2)c(Cl)n1 (single isomer, unassigned) [ID No. 21, (R*)-7-(4-(6-Amino-2-chloropyridin-3-yl)-1H-pyrazol-1-yl)-3-(3-chloro-2-fluoro-6-(1H-tetrazol-1-yl)phenyl)-6,7-dihydro-5H-cyclopenta[b]pyridine 1-oxide] | 2380 nM | > 10000 nM |
| O=C(NC1CC1)c1ccc(-c2cnn(C3CCc4cc(-c5c(-n6cnnn6)ccc(Cl)c5F)c[n+]([O-])c43)c2)cc1 (racemic) [ID No. 18, 3-(3-Chloro-2-fluoro-6-(1H-tetrazol-1-yl)phenyl)-7-(4-(4-(cyclopropylcarbamoyl)phenyl)-1H-pyrazol-1-yl)-6,7-dihydro-5H-cyclopenta[b]pyridine 1-oxide] | 282 nM | 1090 nM |
| Nc1ccc(-c2cnn(C3CCCc4cc(-c5c(-n6cnnn6)ccc(Cl)c5F)c[n+]([O-])c43)c2)c(F)n1 (single isomer, unassigned) [ID No. 31, (R*)-8-(4-(6-Amino-2-fluoropyridin-3-yl)-1H-pyrazol-1-yl)-3-(3-chloro-2-fluoro-6-(1H-tetrazol-1-yl)phenyl)-5,6,7,8-tetrahydroquinoline 1-oxide] | 40 nM | 987 nM |
| Nc1ccc(-c2cnn(C3CCc4cc(-c5c(-n6cnnn6)ccc(Cl)c5F)c[n+]([O-])c43)c2)c(Cl)n1 (racemic) [ID No. 17, 7-(4-(6-Amino-2-chloropyridin-3-yl)-1H-pyrazol-1-yl)-3-(3-Chloro-2-fluoro-6-(1H-tetrazol-1-yl)phenyl)-6,7-dihydro-5H-cyclopenta[b]pyridine 1-oxide] | 5 nM | 432 nM |
| Nc1nc(F)c(-c2cnn(C3CCCc4cc(-c5c(-n6cnnn6)ccc(Cl)c5F)c[n+]([O-])c43)c2)cc1Cl (racemic) [ID No. 30, 8-(4-(6-Amino-5-chloro-2-fluoropyridin-3-yl)-1H-pyrazol-1-yl)-3-(3-chloro-2-fluoro-6-(1H-tetrazol-1-yl)phenyl)-5,6,7,8-tetrahydroquinoline 1-oxide] | 1260 nM | 2880 nM |
| [O-][n+]1cc(-c2c(-n3cnnn3)ccc(Cl)c2F)cc2c1C(n1cc(-c3ccnc(C4CC4)c3)cn1)CC2 (racemic) [ID No. 24, 3-(3-Chloro-2-fluoro-6-(1H-tetrazol-1-yl)phenyl)-7-(4-(2-cyclopropylpyridin-4-yl)-1H-pyrazol-1-yl)-6,7-dihydro-5H-cyclopenta[b]pyridine 1-oxide] | 40 nM | 70 nM |
| Cn1nncc1-c1cnn([C@H]2CCc3cc(-c4c(-n5cnnn5)ccc(Cl)c4F)c[n+]([O-])c32)c1 [ID No. 25, (S)-3-(3-Chloro-2-fluoro-6-(1H-tetrazol-1-yl)phenyl)-7-(4-(1-methyl-1H-1,2,3-triazol-5-yl)-1H-pyrazol-1-yl)-6,7-dihydro-5H-cyclopenta[b]pyridine 1-oxide] | > 10000 nM | > 10000 nM |
